Test results taken from patent publication US20160015817A1, “METHODS OF TREATMENT OF PEDIATRIC SOLID TUMOR” (priority 2013, published 2016).
“Also recorded” adds a separate entry of the source.

Legend:
relapsed RH4 xenografts = assay: Relapsed RH4 xenograft model, re-treatment; format: in vivo, mice; conditions: re-treatment on day 52, 59 and 66, Taxol 30 mg/kg or Abraxane 50 mg/kg
Excerpt: Tumor growth was monitored.

RD xenograft = assay: RD rhabdomyosarcoma xenograft model; format: in vivo, mice; conditions: Taxol 30 mg/kg weekly, Abraxane 50 mg/kg weekly
Experimental: Control mice received saline.
Tumor growth was assessed in RD xenograft model with paclitaxel/Abraxane treatment. In Abraxane treatment group, tumor-bearing mice received Abraxane (50 mg/kg, weekly) treatment. In paclitaxel treatment group, since tumor sizes are reaching the endpoint after 2-week paclitaxel treatment in paclitaxel group, those mice were randomized into two groups with 5 animals in each group on day 15: one group of animals continued receiving 30 mg/kg of paclitaxel and the other group received 50 mg/kg of Abraxane instead.

cleaved caspase-3 = assay: Immunohistochemistry of SK-N-BE(2) xenografts, apoptotic marker; format: in vivo, mice; conditions: different dosages of Abraxane; Taxol 20 mg/kg/weekly; end of study
phospho-histone H3 [1] = assay: Immunohistochemistry of SK-N-BE(2) xenografts, mitotic marker; format: in vivo, mice; conditions: different dosages of Abraxane; Taxol 20 mg/kg/weekly; end of study
phospho-histone H3 [2] = assay: Immunohistochemistry of RH4 xenografts, mitotic marker; format: in vivo, mice; conditions: 48 hours after Abraxane 50 mg/kg iv or Taxol 30 mg/kg iv
Excerpt: Similarly, RH4 xenografts were harvested and analyzed by IHC for phosphor-histone H3.

RH4 xenograft = assay: RH4 rhabdomyosarcoma subcutaneous xenograft model; conditions: for local relapse-free interval: RH4 model
Experimental: Briefly, tumor cells were washed three times with HBSS before injection. Mice were given a subcutaneous injection of 1×10^6 tumor cells. Tumor growth was measured weekly in two dimensions using a digital caliper, and tumor volume was calculated as width^2×length×0.5. Once the tumor diameter reached 0.5 cm, mice were randomized into treatment groups with 10 animals in each group. […] Taxol® was administered i.v. at 20 or 30 mg/kg weekly. Control mice received saline. Tumor volume, mouse body weight and signs of animal distress were evaluated twice or three times a week for any potential drug toxicity. Animals were sacrificed once the tumor size reached 1.5 cm^3.
Tumor volume was measured and calculated as width^2×length×0.5. […] Drugs were given on day 52, 59 and 66 with the same schedule and dosage as above. Tumor growth was monitored.

[3] = tested on: 143.98.2 osteosarcoma cells; format: in vivo; conditions: nab-paclitaxel 30 mg/kg i.v. days 1-5; gemcitabine 100 mg/kg i.p. twice weekly; p=0.031 combination vs nab-paclitaxel alone
Experimental: (§1) Briefly, 5×10^6143.98.2 osteosarcoma cells or A673 Ewing's sarcoma cells were suspended in 100 μl PBS and implanted subcutaneously with 33% Matrigel in 5-6 week-old female athymic nu/nu mice. Tumor volume was calculated using the formula L·W2·(π/6), where L=the longest tumor diameter and W=the widest tumor diameter perpendicular to L. When tumors reached 200-300 mm^3, animals were treated with either saline control, nab-paclitaxel 30 mg/kg intravenously on days 1-5 for a single course, gemcitabine 100 mg/kg intraperitoneally twice weekly until death, or the combination of nab-paclitaxel and gemcitabine. Mice were sacrificed once tumors reached 10% body weight (˜2500 mm^3).
(§2) To perform statistical analysis, it was calculated that a sample of 10 mice per group would provide an 80% power to detect a difference in tumor size of 41%, Power was calculated at a significance level of 0.05 using a two-tailed, two sample Student's t-test assuming equal variance. GraphPad Prism 5 software was used to analyze survival by log-rank and tumor growth by two sample Student's t-test.

[4] = tested on: A673 Ewing's sarcoma cells; assay: A673 Ewing sarcoma subcutaneous xenograft; format: in vivo, mice; conditions: gemcitabine 100 mg/kg i.p. twice weekly with nab-paclitaxel
Experimental: as §1, §2

[5] = dosing on days 1, 8 and 15, Taxol 30 mg/kg, Abraxane 50 mg/kg

Compound | response of tumors relapsed after Taxol (paclitaxel) treatment (relapsed RH4 xenografts) | response of tumors relapsed after Taxol (paclitaxel) treatment (relapsed RH4 xenografts; listed as paclitaxel) | tumor growth (tumor volume) (RD xenograft) | apoptotic cell population (cleaved caspase-3 staining) (cleaved caspase-3) | phospho-histone H3 positive cells (phospho-histone H3 [1]) | phospho-histone H3 positive cells (phospho-histone H3 [2]) | animals that developed relapsed tumors (RH4 xenograft; 7 animals per group) | tumor growth (tumor volume) (RH4 xenograft; Abraxane 50 mg/kg, Taxol 30 mg/kg i.v. weekly) | local relapse-free interval (RH4 xenograft) | local relapse-free interval (RH4 xenograft; listed as paclitaxel) | mice that died (RH4 xenograft; Taxol 30 mg/kg group, Day 10) | complete regression observed after day (RH4 xenograft; [5]) | time to tumor relapse after complete regression (RH4 xenograft; [5]) | tumor growth [3] | additive benefit of gemcitabine added to nab-paclitaxel [4]
CC(=O)O[C@H]1C(=O)[C@@]2(C)[C@H]([C@H](OC(=O)c3ccccc3)[C@]3(O)C[C@H](OC(=O)[C@H](O)[C@@H](NC(=O)c4ccccc4)c4ccccc4)C(C)=C1C3(C)C)[C@]1(OC(C)=O)CO[C@@H]1C[C@@H]2O [Taxol®, paclitaxel] | drug resistant against Taxol® | paclitaxel-resistant | slow the growth of RD tumors, but those tumors grew progressively with no signs of tumor regression; also recorded: significantly inhibited tumor growth | only slightly increased apoptosis in tumors | only slightly increased phospho-histone H3 positive cells | Significant increased population of phospho-histone H3 positive cells | all Taxol® treated animals demonstrated tumor relapse | significantly inhibited RH4 tumor growth, with tumor regression observed after the 2nd dosage on day 8 | 13.6 ± 2.07 days | 34 days | 1 out of 7 | > 31 days | 11 to 15 days |  | 
Nc1ccn([C@@H]2O[C@H](CO)[C@@H](O)C2(F)F)c(=O)n1 [gemcitabine] |  |  |  |  |  |  |  |  |  |  |  |  |  | appeared additive | no additive benefit
